Results reported in PMC6300691, “Enhancement of Heat Stability and Kinetic Parameters of the Maize Endosperm ADP-Glucose Pyrophosphorylase by Mutagenesis of Amino Acids in the Small Subunit With High B Factors” (Frontiers in Plant Science, 2018).
Where a chain is given by its changes, count along the chain named.

Tests used:
Assay type in all cases: biochemical
D242H = target: T1, D242H (Zea mays, UniProt P55241+Q947C0, D242H); assay: Activation constant from initial rates with varied 3-PGA (0-1 mM) at 2 mM ATP and 2 mM G-1-P, pH 7.4, 15 mM MgCl2, fitted to V = Vmin + Vmax*X/(Ka + X).
T1 construct: BT2 variant with wild type SH2, E. coli, purified
T1 sequence (Q947C0 1-475 D242H, one chain of several): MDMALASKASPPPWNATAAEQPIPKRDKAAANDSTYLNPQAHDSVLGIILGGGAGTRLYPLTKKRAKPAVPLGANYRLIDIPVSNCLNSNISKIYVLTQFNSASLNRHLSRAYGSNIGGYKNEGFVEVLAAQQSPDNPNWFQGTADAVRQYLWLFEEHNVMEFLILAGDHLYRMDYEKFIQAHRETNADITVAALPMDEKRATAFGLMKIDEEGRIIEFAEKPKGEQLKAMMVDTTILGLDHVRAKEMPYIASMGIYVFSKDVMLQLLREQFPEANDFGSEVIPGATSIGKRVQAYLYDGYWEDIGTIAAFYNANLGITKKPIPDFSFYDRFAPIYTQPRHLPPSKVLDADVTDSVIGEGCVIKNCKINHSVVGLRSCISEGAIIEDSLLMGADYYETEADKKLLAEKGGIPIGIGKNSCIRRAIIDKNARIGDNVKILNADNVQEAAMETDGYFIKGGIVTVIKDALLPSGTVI
Excerpt: (§1) All reactions were developed as above.

E123G = target: T2, E123G (Zea mays, UniProt P55241+Q947C0, E123G); assay: as above
T2 construct: BT2 variant with wild type SH2, E. coli, purified
T2 sequence (Q947C0 entry or part of it E123G, one chain of several): as the sequence (Q947C0 1-475 D242H, one chain of several) above, with E123G, H242D counted along it
Excerpt: as §1

E123G, R331K = target: T3, E123G, R331K (Zea mays, UniProt P55241+Q947C0, E123G/R331K); assay: as above
T3 construct: BT2 variant with wild type SH2, E. coli, purified
T3 sequence (Q947C0 1-475 E123G/R331K, one chain of several): as the sequence (Q947C0 1-475 D242H, one chain of several) above, with E123G, H242D, R331K counted along it
Excerpt: as §1

[1] = target: T4, E123G, R331K, K402R (BT2-BF) (Zea mays, UniProt P55241+Q947C0, E123G/R331K/K402R); assay: as above
T4 construct: BT2-BF with wild type SH2 (SH2-WT/BT2-BF), E. coli, purified
T4 sequence (Q947C0 1-475 E123G/R331K/K402R): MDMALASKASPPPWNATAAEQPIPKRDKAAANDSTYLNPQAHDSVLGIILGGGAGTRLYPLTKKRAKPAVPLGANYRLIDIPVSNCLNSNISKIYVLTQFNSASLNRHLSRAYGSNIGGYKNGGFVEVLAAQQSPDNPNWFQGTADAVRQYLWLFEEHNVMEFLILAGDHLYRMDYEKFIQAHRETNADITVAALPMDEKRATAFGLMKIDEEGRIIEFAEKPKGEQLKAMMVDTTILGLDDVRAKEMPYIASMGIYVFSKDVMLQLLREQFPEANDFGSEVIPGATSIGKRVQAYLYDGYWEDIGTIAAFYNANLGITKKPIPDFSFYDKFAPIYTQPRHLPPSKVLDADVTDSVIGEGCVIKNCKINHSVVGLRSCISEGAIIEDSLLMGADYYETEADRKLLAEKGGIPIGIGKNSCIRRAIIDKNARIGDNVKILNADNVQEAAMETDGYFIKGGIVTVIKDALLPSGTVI
T4 sequence (P55241 46-516): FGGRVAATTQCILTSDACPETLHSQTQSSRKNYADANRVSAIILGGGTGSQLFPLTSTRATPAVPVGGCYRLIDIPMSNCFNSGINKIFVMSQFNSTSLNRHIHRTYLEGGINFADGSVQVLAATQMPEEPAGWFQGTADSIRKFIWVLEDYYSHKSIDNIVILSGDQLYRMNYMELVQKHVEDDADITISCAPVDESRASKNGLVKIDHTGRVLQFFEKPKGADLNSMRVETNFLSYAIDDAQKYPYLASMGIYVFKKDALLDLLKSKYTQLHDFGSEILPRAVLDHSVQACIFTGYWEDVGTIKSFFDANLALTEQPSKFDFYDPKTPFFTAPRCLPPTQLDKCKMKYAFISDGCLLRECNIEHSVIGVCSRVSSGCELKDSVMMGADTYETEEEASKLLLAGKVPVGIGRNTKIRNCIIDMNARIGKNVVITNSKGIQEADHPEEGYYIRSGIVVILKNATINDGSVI
Excerpt: as §1

E123Q = target: T5, E123Q (Zea mays, UniProt P55241+Q947C0, E123Q); assay: as above
T5 construct: BT2 variant with wild type SH2, E. coli, purified
T5 sequence (Q947C0 1-475 E123Q, one chain of several): as the sequence (Q947C0 1-475 D242H, one chain of several) above, with E123Q, H242D counted along it
Excerpt: as §1

K402R [2] = target: T6, K402R (Zea mays, UniProt P55241+Q947C0, K402R); assay: as above
T6 construct: BT2 variant with wild type SH2, E. coli, purified
T6 sequence (Q947C0 1-475 K402R, one chain of several): as the sequence (Q947C0 1-475 D242H, one chain of several) above, with H242D, K402R counted along it
Excerpt: as §1

K403L [3] = target: T7, K403L (Zea mays, UniProt P55241+Q947C0, K403L); assay: as above
T7 construct: BT2 variant with wild type SH2, E. coli, purified
T7 sequence (Q947C0 1-475 K403L, one chain of several): as the sequence (Q947C0 1-475 D242H, one chain of several) above, with H242D, K403L counted along it
Excerpt: as §1

L404E = target: T8, L404E (Zea mays, UniProt P55241+Q947C0, L404E); assay: as above
T8 construct: BT2 variant with wild type SH2, E. coli, purified
T8 sequence (Q947C0 1-475 L404E, one chain of several): as the sequence (Q947C0 1-475 D242H, one chain of several) above, with H242D, L404E counted along it
Excerpt: as §1

L404H = target: T9, L404H (Zea mays, UniProt P55241+Q947C0, L404H); assay: as above
T9 construct: BT2 variant with wild type SH2, E. coli, purified
T9 sequence (Q947C0 1-475 L404H, one chain of several): as the sequence (Q947C0 1-475 D242H, one chain of several) above, with H242D, L404H counted along it
Excerpt: as §1

L404K [4] = target: T10, L404K (Zea mays, UniProt P55241+Q947C0, L404K); assay: as above
T10 construct: BT2 variant with wild type SH2, E. coli, purified
T10 sequence (Q947C0 1-475 L404K, one chain of several): as the sequence (Q947C0 1-475 D242H, one chain of several) above, with H242D, L404K counted along it
Excerpt: as §1

R331K = target: T11, R331K (Zea mays, UniProt P55241+Q947C0, R331K); assay: as above
T11 construct: BT2 variant with wild type SH2, E. coli, purified
T11 sequence (Q947C0 1-475 R331K, one chain of several): as the sequence (Q947C0 1-475 D242H, one chain of several) above, with H242D, R331K counted along it
Excerpt: as §1

K402R [5] = target: T6, K402R; assay: Initial-rate assay (PPi formation coupled to NADH oxidation) with varied ATP (0.05-3.0 mM) at 2.0 mM G-1-P, 2.5 mM 3-PGA, 15 mM MgCl2, 50 mM HEPES pH 7.4, hyperbolic fit.; conditions: read-out: KM ATP
Excerpt: (§2) All saturation plots were hyperbolic. No cooperative effects were seen.

K403L [6] = target: T7, K403L; assay: as above; conditions: read-out: KM ATP
Excerpt: as §2

L404K [7] = target: T10, L404K; assay: as above; conditions: read-out: KM ATP
Excerpt: as §2

SH2-ISM/BT2-BF = target: T12, SH2-ISM/BT2-BF (Zea mays, UniProt P55241+Q947C0, Q96G/E123G/D161G/R331K/K402R/A443R); assay: Pi inhibition study without 3-PGA, ATP varied (0.1-3 mM) at fixed Pi levels (10-30 mM) and sub-saturating G-1-P (1 mM), fit to mixed-type inhibition equations.; conditions: read-out: Km (mM), varied substrate ATP, Pi inhibition in the absence of 3-PGA
T12 construct: SH2-ISM co-expressed with BT2-BF, E. coli, purified
T12 sequence (Q947C0 1-475 E123G/R331K/K402R): T4 sequence (Q947C0 1-475 E123G/R331K/K402R)
T12 sequence (P55241 46-516 Q96G/D161G/A443R): T4 sequence (P55241 46-516) with Q51G, D116G, A398R
Procedure: Pi inhibition was carried out in both the presence and absence of 3-PGA with the Pi and substrate concentrations listed below.
A large α value indicates competitive inhibition whereby the inhibitor prevents binding of the substrate. If the inhibitor enhances the binding of the substrate, α is very small, and the model reduces to an uncompetitive model. […] Special cases include pure non-competitive inhibition, where α = 1 and β = 0 and partial non-competitive inhibition whereby α = 1 and 0 < β < 1.
Pi inhibition patterns in the presence and absence of 3PGA were also determined. Pi inhibition patterns were obtained by varying one substrate at several fixed concentrations of Pi, while holding the co-substrate at constant sub-saturating levels.

SMILES | 3-PGA Ka (activation constant) (D242H) | 3-PGA Ka (activation constant) (E123G) | 3-PGA Ka (activation constant) (E123G, R331K) | 3-PGA Ka (activation constant) [1] | 3-PGA Ka (activation constant) (E123Q) | 3-PGA Ka (activation constant) (K402R [2]) | 3-PGA Ka (activation constant) (K403L [3]) | 3-PGA Ka (activation constant) (L404E) | 3-PGA Ka (activation constant) (L404H) | 3-PGA Ka (activation constant) (L404K [4]) | 3-PGA Ka (activation constant) (R331K) | Km (K402R [5]) [µM] | Km (K403L [6]) [µM] | Km (L404K [7]) [µM] | Km (SH2-ISM/BT2-BF) [mM]
O=C(O)[C@H](O)COP(=O)(O)O [3-PGA, 3-phosphoglycerate (3-phosphoglyceric acid)] | 0.077 ± 0.0077 | 0.090 ± 0.023 | 0.183 ± 0.024 | 0.060 ± 0.0097 | 0.12 ± 0.022 | 0.077 ± 0.014 | 0.41 ± 0.049 | 0.15 ± 0.014 | 0.05 ± 0.008 | 0.14 ± 0.047 | 0.07 ± 0.008 |  |  |  | 
Nc1ncnc2c1ncn2[C@@H]1O[C@H](COP(=O)(O)OP(=O)(O)OP(=O)(O)O)[C@@H](O)[C@H]1O [ATP, adenosine 5'-triphosphate] |  |  |  |  |  |  |  |  |  |  |  | 79 ± 15 | 82 ± 17 | 43 ± 9 | 3.6 ± 1.63
